Results published in publication PMC9250534, “Synthesis and direct assay of large macrocycle diversities by combinatorial late-stage modification at picomole scale” (Nature Communications, 2022).

Biological target: MDM2 (Homo sapiens, UniProt Q00987)
Assay: MDM2 binding screen of Libraries 3 and 4: displacement of fluorescent probe F-M8 at 750 nM macrocycle
Details: Panel b, Library 3: 63 scaffolds combinatorially acylated with 15 carboxylic acids at 30 picomole scale; displacement of fluorescent peptide probe; macrocycle 750 nM
Summary of the method: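 Cyclic peptide scaffolds were acylated in DMSO with carboxylic acids (20 equiv.), HBTU and DABCO for 6 h at room temperature. Reactions were quenched overnight in 100 mM Tris-Cl pH 7.4, 0.01% Tween20. The fluorescein conjugate was also competed with nutlin-3a.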

MDM2, sequence (Q00987 whole entry): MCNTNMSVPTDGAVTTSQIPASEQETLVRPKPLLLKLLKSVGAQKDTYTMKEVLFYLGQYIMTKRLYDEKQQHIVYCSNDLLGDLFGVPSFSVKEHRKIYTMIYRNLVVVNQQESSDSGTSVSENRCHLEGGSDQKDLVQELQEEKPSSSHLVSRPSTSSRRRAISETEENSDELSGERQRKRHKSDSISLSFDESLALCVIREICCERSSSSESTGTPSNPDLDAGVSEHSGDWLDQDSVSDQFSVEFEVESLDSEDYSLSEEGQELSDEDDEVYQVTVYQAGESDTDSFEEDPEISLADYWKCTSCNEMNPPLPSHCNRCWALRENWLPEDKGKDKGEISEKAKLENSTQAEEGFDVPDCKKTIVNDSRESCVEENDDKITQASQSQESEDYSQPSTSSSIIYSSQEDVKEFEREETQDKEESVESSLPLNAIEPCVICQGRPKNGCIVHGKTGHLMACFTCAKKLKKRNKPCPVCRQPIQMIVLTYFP

Going from `O=C(NC[C@@H]1NC(=O)[C@@H]2CN(CCO2)C(=O)CCSSCCNC(=O)[C@H](Cc2c[nH]c3ccccc23)NC1=O)c1ccc2ccccc2c1` [X-Cop-Dap-Trp + Acid 107] to `O=C(/C=C/c1ccc2ccccc2c1)NC[C@@H]1NC(=O)[C@@H]2CN(CCO2)C(=O)CCSSCCNC(=O)[C@H](Cc2c[nH]c3ccccc23)NC1=O` [X-Cop-Dap-Trp + Acid 112], the “fraction of fluorescent probe displaced” value rises from 0.108 to 0.168.

Going from `O=C(/C=C/c1ccc(OCc2ccccc2)cc1)NC[C@@H]1NC(=O)[C@@H]2CN(CCO2)C(=O)CCSSCCNC(=O)[C@H](Cc2c[nH]c3ccccc23)NC1=O` [X-Cop-Dap-Trp + Acid 110] to `O=C(/C=C/c1ccc(OCc2ccccc2)cc1)NCCN1CC(=O)N[C@@H](Cc2c[nH]c3ccccc23)C(=O)NCCSSCCC(=O)N2CCO[C@@H](C2)C1=O` [X-Cop-N-Aeg-Trp + Acid 110], the “fraction of fluorescent probe displaced” value rises from -0.012 to 0.015.

Going from `O=C(NC[C@@H]1NC(=O)[C@@H]2CN(CCO2)C(=O)CCSSCCNC(=O)[C@H](Cc2c[nH]c3ccccc23)NC1=O)c1cccc(Oc2ccccc2)c1` [X-Cop-Dap-Trp + Acid 111] to `CC(Oc1cccc(Cl)c1)C(=O)NC[C@@H]1NC(=O)[C@@H]2CN(CCO2)C(=O)CCSSCCNC(=O)[C@H](Cc2c[nH]c3ccccc23)NC1=O` (stereo partly drawn) [X-Cop-Dap-Trp + Acid 113], the “fraction of fluorescent probe displaced” value falls from 0.048 to -0.00533.

`O=C(NC[C@@H]1NC(=O)[C@@H]2CN(CCO2)C(=O)CCSSCCNC(=O)[C@H](Cc2c[nH]c3ccccc23)NC1=O)C1COc2ccccc2O1` (stereo partly drawn) [X-Cop-Dap-Trp + Acid 115] and `O=C1CN(CCNC(=O)C2COc3ccccc3O2)C(=O)[C@@H]2CN(CCO2)C(=O)CCSSCCNC(=O)[C@@H](Cc2c[nH]c3ccccc23)N1` (stereo partly drawn) [X-Cop-N-Aeg-D-Trp + Acid 115] are the same in “fraction of fluorescent probe displaced” value: -0.00533 for the first, -0.00533 for the second.

Going from `O=C1CN(CCNC(=O)c2ccc(Cl)s2)C(=O)[C@@H]2CN(CCO2)C(=O)CCSSCCNC(=O)[C@H](Cc2cccc3ccccc23)N1` [X-Cop-N-Aeg-1-NaI + Acid 14] to `O=C1CN(CCNC(=O)c2ccc(Cl)s2)C(=O)C2CN(CCO2)C(=O)CCSSCCNC(=O)C(Cc2ccc3ccccc3c2)N1` (stereo not shown) [X-Cop-N-Aeg-2-Nal + Acid 14], the “fraction of fluorescent probe displaced” value rises from -0.025 to -0.019.

Compared with `O=C1CN(CCNC(=O)c2ccc(Cl)cc2)C(=O)C2CN(CCO2)C(=O)CCSSCCNC(=O)C(Cc2cccc3ccccc23)N1` (stereo not shown) [X-Cop-N-Aeg-1-NaI + Acid 25], `O=C(C=Cc1ccc(Cl)cc1)NCCN1CC(=O)NC(Cc2cccc3ccccc23)C(=O)NCCSSCCC(=O)N2CCOC(C2)C1=O` (stereo not shown) [X-Cop-N-Aeg-1-NaI + Acid 108] is higher in “fraction of fluorescent probe displaced” value: 0.008 for the first, 0.048 for the second.

Going from `O=C(/C=C/c1ccc(OCc2ccccc2)cc1)NCCN1CC(=O)N[C@@H](Cc2cccc3ccccc23)C(=O)NCCSSCCC(=O)N2CCO[C@@H](C2)C1=O` [X-Cop-N-Aeg-1-NaI + Acid 110] to `O=C1CN(CCNC(=O)c2cccc(Oc3ccccc3)c2)C(=O)[C@@H]2CN(CCO2)C(=O)CCSSCCNC(=O)[C@H](Cc2cccc3ccccc23)N1` [X-Cop-N-Aeg-1-NaI + Acid 111], the “fraction of fluorescent probe displaced” value falls from 0.035 to -0.00533.

Going from `CC(Oc1cccc(Cl)c1)C(=O)NCCN1CC(=O)N[C@@H](Cc2cccc3ccccc23)C(=O)NCCSSCCC(=O)N2CCO[C@@H](C2)C1=O` (stereo partly shown) [X-Cop-N-Aeg-1-NaI + Acid 113] to `O=C(CCS(=O)(=O)c1ccccc1)NCCN1CC(=O)NC(Cc2cccc3ccccc23)C(=O)NCCSSCCC(=O)N2CCOC(C2)C1=O` (stereo not shown) [X-Cop-N-Aeg-1-NaI + Acid 114], the “fraction of fluorescent probe displaced” value rises from 0.008 to 0.015.

Compared with `O=C1CN(CCNC(=O)c2ccc(Cl)cc2)C(=O)[C@@H]2CN(CCO2)C(=O)CCSSCCNC(=O)[C@H](Cc2ccc3ccccc3c2)N1` [X-Cop-N-Aeg-2-Nal + Acid 25], `O=C1CN(CCNC(=O)c2ccc3ccccc3c2)C(=O)[C@@H]2CN(CCO2)C(=O)CCSSCCNC(=O)[C@H](Cc2c[nH]c3cc(Cl)ccc23)N1` [X-Cop-N-Aeg-Cl-Trp + Acid 107] is higher in “fraction of fluorescent probe displaced” value: 0.00133 for the first, 0.00455 for the second.

Going from `O=C1CN(CCNC(=O)C2CC2c2ccccc2)C(=O)C2CN(CCO2)C(=O)CCSSCCNC(=O)C(Cc2ccc3ccccc3c2)N1` (stereo not shown) [X-Cop-N-Aeg-2-Nal + Acid 105] to `O=C(/C=C/c1ccc2ccccc2c1)NCCN1CC(=O)N[C@@H](Cc2ccc3ccccc3c2)C(=O)NCCSSCCC(=O)N2CCO[C@@H](C2)C1=O` [X-Cop-N-Aeg-2-Nal + Acid 112], the “fraction of fluorescent probe displaced” value rises from -0.015 to 0.035.

Compared with `O=C1CN(CCNC(=O)c2ccc(Cl)s2)C(=O)[C@@H]2CN(CCO2)C(=O)CCSSCCNC(=O)[C@H](Cc2c[nH]c3cc(Cl)ccc23)N1` [X-Cop-N-Aeg-Cl-Trp + Acid 14], `O=C1CN(CCNC(=O)c2ccc(Cl)s2)C(=O)[C@@H]2CN(CCO2)C(=O)CCSSCCNC(=O)[C@@H](Cc2c[nH]c3ccccc23)N1` [X-Cop-N-Aeg-D-Trp + Acid 14] is lower in “fraction of fluorescent probe displaced” value: -0.00533 for the first, -0.012 for the second.

Compared with `O=C1CN(CCNC(=O)C2COc3ccccc3O2)C(=O)[C@@H]2CN(CCO2)C(=O)CCSSCCNC(=O)[C@H](Cc2c[nH]c3cc(Cl)ccc23)N1` (stereo partly shown) [X-Cop-N-Aeg-Cl-Trp + Acid 115], `O=C1CN(CCNC(=O)C2COc3ccccc3O2)C(=O)[C@@H]2CN(CCO2)C(=O)CCSSCCNC(=O)[C@H](Cc2c[nH]c3ccccc23)N1` (stereo partly shown) [X-Cop-N-Aeg-Trp + Acid 115] is lower in “fraction of fluorescent probe displaced” value: 0.021 for the first, -0.012 for the second.

Going from `O=C(/C=C/c1ccc(Cl)cc1)NCCN1CC(=O)N[C@H](Cc2c[nH]c3ccccc23)C(=O)NCCSSCCC(=O)N2CCO[C@@H](C2)C1=O` [X-Cop-N-Aeg-D-Trp + Acid 108] to `O=C1CN(CCNC(=O)c2ccc(Cl)cc2)C(=O)C2CN(CCO2)C(=O)CCSSCCNC(=O)C(Cc2c[nH]c3ccccc23)N1` (stereo not shown) [X-Cop-N-Aeg-Trp + Acid 25], the “fraction of fluorescent probe displaced” value rises from 0.015 to 0.055.

First: Cn1cc(C[C@@H]2NC(=O)CN(CCNC(=O)c3ccc(Cl)cc3)C(=O)[C@@H]3CN(CCO3)C(=O)CCSSCCNC2=O)c2ccccc21 [X-Cop-N-Aeg-Me-Trp + Acid 25]
Second: Cn1cc(C[C@@H]2NC(=O)CN(CCNC(=O)/C=C/c3ccc(Cl)cc3)C(=O)[C@@H]3CN(CCO3)C(=O)CCSSCCNC2=O)c2ccccc21 [X-Cop-N-Aeg-Me-Trp + Acid 108]
The “fraction of fluorescent probe displaced” value of the first is higher: 0.028 for the first, 0.021 for the second.

First: Cn1cc(C[C@@H]2NC(=O)CN(CCNC(=O)c3ccc4ccccc4c3)C(=O)[C@@H]3CN(CCO3)C(=O)CCSSCCNC2=O)c2ccccc21 [X-Cop-N-Aeg-Me-Trp + Acid 107]
Second: Cn1cc(C[C@@H]2NC(=O)CN(CCNC(=O)/C=C/c3ccc4ccccc4c3)C(=O)[C@@H]3CN(CCO3)C(=O)CCSSCCNC2=O)c2ccccc21 [X-Cop-N-Aeg-Me-Trp + Acid 112]
The “fraction of fluorescent probe displaced” value of the first is lower: 0.00455 for the first, 0.028 for the second.

Going from `Cn1cc(C[C@@H]2NC(=O)CN(CCNC(=O)c3cccc(Oc4ccccc4)c3)C(=O)[C@@H]3CN(CCO3)C(=O)CCSSCCNC2=O)c2ccccc21` [X-Cop-N-Aeg-Me-Trp + Acid 111] to `O=C1CN(CCNC(=O)c2ccc3ccccc3c2)C(=O)[C@@H]2CN(CCO2)C(=O)CCSSCCNC(=O)[C@H](Cc2c[nH]c3ccccc23)N1` [X-Cop-N-Aeg-Trp + Acid 107], the “fraction of fluorescent probe displaced” value rises from -0.00533 to 0.00455.

Compared with `Cn1cc(C[C@@H]2NC(=O)CN(CCNC(=O)CCS(=O)(=O)c3ccccc3)C(=O)[C@@H]3CN(CCO3)C(=O)CCSSCCNC2=O)c2ccccc21` [X-Cop-N-Aeg-Me-Trp + Acid 114], `O=C(/C=C/c1ccc2ccccc2c1)NCCN1CC(=O)N[C@@H](Cc2c[nH]c3ccccc23)C(=O)NCCSSCCC(=O)N2CCO[C@@H](C2)C1=O` [X-Cop-N-Aeg-Trp + Acid 112] is higher in “fraction of fluorescent probe displaced” value: -0.012 for the first, 0.028 for the second.

First: CN1C(=O)CN(CCNC(=O)c2ccc(Cl)s2)C(=O)[C@@H]2CN(CCO2)C(=O)CCSSCCNC(=O)[C@@H]1Cc1c[nH]c2ccccc12 [X-Cop-N-Aeg-NMe-Trp + Acid 14]
Second: CN1C(=O)CN(CCNC(=O)c2ccc(Cl)cc2)C(=O)C2CN(CCO2)C(=O)CCSSCCNC(=O)C1Cc1c[nH]c2ccccc12 (stereo not shown) [X-Cop-N-Aeg-NMe-Trp + Acid 25]
The “fraction of fluorescent probe displaced” value of the first is lower: -0.025 for the first, 0.021 for the second.

Going from `CN1C(=O)CN(CCNC(=O)/C=C/c2ccc3ccccc3c2)C(=O)[C@@H]2CN(CCO2)C(=O)CCSSCCNC(=O)[C@@H]1Cc1c[nH]c2ccccc12` [X-Cop-N-Aeg-NMe-Trp + Acid 112] to `O=C(NC[C@H]1NC(=O)[C@H]2CCCN(C2)C(=O)CCSSCCNC(=O)[C@H](Cc2cccc3ccccc23)NC1=O)c1ccc2ccccc2c1` [X-Nip-D-Dap-1-NaI + Acid 107], the “fraction of fluorescent probe displaced” value falls from 0.015 to 0.00455.

Going from `O=C(NC[C@H]1NC(=O)[C@H]2CCCN(C2)C(=O)CCSSCCNC(=O)[C@H](Cc2cccc3ccccc23)NC1=O)c1ccc(Cl)s1` [X-Nip-D-Dap-1-NaI + Acid 14] to `O=C(NC[C@H]1NC(=O)[C@H]2CCCN(C2)C(=O)CCSSCCNC(=O)[C@H](Cc2cccc3ccccc23)NC1=O)c1ccc(Cl)cc1` [X-Nip-D-Dap-1-NaI + Acid 25], the “fraction of fluorescent probe displaced” value rises from -0.019 to 0.015.

Same assay, conditions: Panel c, Library 4: best nine scaffolds and 15 additional carboxylic acids; displacement of fluorescent probe

Going from `CCOc1ccc(C=CC(=O)NCC2NC(=O)C3CN(CCO3)C(=O)CCSSCCNC(=O)C(Cc3c[nH]c4ccccc34)NC2=O)cc1` (stereo not drawn) [X-Cop-Dap-Trp + Acid 117] to `CCCOc1ccc(C=CC(=O)NCC2NC(=O)C3CN(CCO3)C(=O)CCSSCCNC(=O)C(Cc3c[nH]c4ccccc34)NC2=O)cc1` (stereo not drawn) [X-Cop-Dap-Trp + Acid 118], the “fraction of fluorescent probe displaced” value falls from 0.199 to 0.158.

`O=C(C=Cc1cccc(C(F)(F)F)c1)NCC1NC(=O)C2CN(CCO2)C(=O)CCSSCCNC(=O)C(Cc2c[nH]c3ccccc23)NC1=O` (stereo not drawn) [X-Cop-Dap-Trp + Acid 122] was tested, and the “fraction of fluorescent probe displaced” value was 0.118.
